Measurements from patent publication US20250114338A1, “TETRAHYDRO-PYRIDO[3,4-b]INDOLE ESTROGEN RECEPTOR MODULATORS AND USES THEREOF” (Genentech, Inc., priority 2014, published 2025).

Columns and labels:
immature rat uterus = assay: Immature Uterine Wet Weight Assay, agonist mode (Example 906); format: in vivo; settings: dosed PO, QDx3, uterine wet weight:body weight ratio, endometrial height
Method: All of the exemplary Formula I compounds in Tables 1 and 2 were made and characterized by LCMS [M+H]^+ (liquid chromatography mass spectroscopy) with detection of parent ion. […] ER-alpha MCF7 HCS Sinf (%) values in Table 1 were measured by the Breast Cancer Cell ERa High Content Fluorescence Imaging Degradation Assay of Example 901. […] RTP, 25 (3):226-31). […] Where more than one name is associated with a Formula I compound or intermediate, the chemical structure shall define the compound. Female immature CD-IGS rats (21 days old upon arrival) are treated for three days. Animals are dosed daily for three days. […] For Agonist Mode, Vehicle or test compound is administered orally by gavage. On the fourth day 24 hours after dose, plasma is collected for pharmacokinetic analysis. Immediately following plasma collection, the animals are euthanized and the uterus removed and weighed. […] Stained tissues are analyzed and read by a board certified pathologist. Uteri and ovaries from 4 animals per group are flash frozen in liquid N2 for transcriptional analysis, examining a select set of genes modulated by the estrogen receptor. […] U.S. Pat. […] Vehicle and Vehicle plus ethynyl estradiol (EE). All compounds were dosed PO, QDx3. Uterine Wet Weight (UWW): Body Weight ratios were calculated. The mean Endometrial Height of Uterine cross sections were measured by histology. Endometrial cell height was measured from the basement membrane to the apical (luminal) surface using a slide viewer at 20× magnification. Obliquely cut areas were avoided.

[1] = target: estrogen receptor alpha (ESR1) in MCF7 breast cancer cells (Homo sapiens (Human), UniProt P03372); assay: Breast Cancer Cell ERa High Content Fluorescence Imaging Degradation Assay (Example 901); format: cell-based; settings: 4 hours, plateau of maximal effect, 0% = DMSO, 100% change = 5 nM Fulvestrant
Sequence of estrogen receptor alpha (ESR1) in MCF7 breast cancer cells (P03372 whole entry): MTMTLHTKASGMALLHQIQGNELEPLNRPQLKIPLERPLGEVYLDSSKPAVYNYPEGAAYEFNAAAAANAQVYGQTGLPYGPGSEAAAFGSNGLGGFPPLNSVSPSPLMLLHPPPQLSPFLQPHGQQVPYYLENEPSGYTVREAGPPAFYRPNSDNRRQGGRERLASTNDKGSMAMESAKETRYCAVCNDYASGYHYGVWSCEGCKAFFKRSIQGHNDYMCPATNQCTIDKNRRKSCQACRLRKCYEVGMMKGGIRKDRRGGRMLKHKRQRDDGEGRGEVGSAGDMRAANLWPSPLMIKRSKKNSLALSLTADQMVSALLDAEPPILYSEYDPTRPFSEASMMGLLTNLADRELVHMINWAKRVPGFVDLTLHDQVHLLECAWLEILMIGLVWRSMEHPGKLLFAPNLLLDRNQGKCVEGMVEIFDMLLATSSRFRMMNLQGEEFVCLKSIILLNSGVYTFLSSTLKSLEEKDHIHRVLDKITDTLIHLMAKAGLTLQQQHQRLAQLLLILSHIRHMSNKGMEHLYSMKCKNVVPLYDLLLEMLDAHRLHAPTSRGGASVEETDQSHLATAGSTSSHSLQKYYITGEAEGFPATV
Method: Where more than one name is associated with a Formula I compound or intermediate, the chemical structure shall define the compound. […] Cell plates were incubated at 37° C., for 4 hours. Fixation and permeabilization were carried out using a Biotek EL406 plate washer and dispenser as follows. […] Well contents were aspirated and washed 3 times with 100 μL/well of PBS. […] Samples were incubated for 2 hours at room temperature. […] Samples were incubated for 2 hours at room temperature. […] Quantitative fluorescence imaging of ESR1 was carried out using a Cellomics Arrayscan V (Thermo). […] Channel 1 (DNA stain) was used to define the nuclear region (Circ). […] The “Robust Fit” method was used to define the inflexion point of curve (EC50) and the plateau of the maximal effect (Sinf).

ER-alpha MCF7 = ER-alpha MCF7 HCS EC50; stated as measured by in vitro cell proliferation assays of Examples 902 and 903; format: cell-based; settings: Homo sapiens, MCF7, MCF7 cells; Table 1
Method in brief: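 MCF7 cells seeded 1000-2000 cells/well for 16 h, then treated with nine-point 1:2 DMSO dilution series in quadruplicate at 37 °C, 5% CO2 for 4 days. Viable cells quantified by CellTiter-Glo ATP luminescence; EC50 calculated. Controls: fulvestrant at final 100 nM, DMSO 0.2% v/v.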

Structure (SMILES)	agonist mode UWW assay: antagonist / partial agonist (immature rat uterus)	ER-alpha MCF7 HCS Sinf (%) [1] [%]	EC50 (ER-alpha MCF7) [nM]
C[C@@H]1Cc2c([nH]c3ccccc23)[C@@H](c2c(F)cc(/C=C/C(=O)O)cc2F)N1CC(C)(C)F [AZD9496, reference compound]	partial agonist	–	–
C[C@@H]1Cc2c([nH]c3ccccc23)[C@@H](c2c(F)cc(OC3CN(CCCF)C3)cc2F)N1CC(C)(C)F [Example 101, (1R,3R)-1-(2,6-difluoro-4-((1-(3-fluoropropyl)azetidin-3-yl)oxy)phenyl)-2-(2-fluoro-2-methylpropyl)-3-methyl-2,3,4,9-tetrahydro-1H-pyrido[3,4-b]indole]	antagonists	−100	–
C[C@@H]1Cc2c([nH]c3ccccc23)[C@@H](c2c(F)cc(OCCN3CC(CF)C3)cc2F)N1CC(C)(C)F [Example 102, (1R,3R)-1-(2,6-difluoro-4-(2-(3-(fluoromethyl)azetidin-1-yl)ethoxy)phenyl)-2-(2-fluoro-2-methylpropyl)-3-methyl-2,3,4,9-tetrahydro-1H-pyrido[3,4-b]indole]	antagonists	−98.9	–
C[C@@H](CO)CN1[C@H](c2c(F)cc(OCCN3CC(CF)C3)cc2F)c2[nH]c3ccccc3c2C[C@H]1C [Example 123, (R)-3-((1R,3R)-1-(2,6-difluoro-4-(2-(3-(fluoromethyl)azetidin-1-yl)ethoxy)phenyl)-3-methyl-3,4-dihydro-1H-pyrido[3,4-b]indol-2(9H)-yl)-2-methylpropan-1-ol]	–	−96.1	1.04
C[C@@H]1Cc2c([nH]c3ccccc23)[C@@H](c2c(F)cc(OCCN3CC(CF)C3)cc2F)N1C(=O)C1CC(O)C1 (stereo partly drawn) [Example 124, ((1R,3R)-1-(2,6-difluoro-4-(2-(3-(fluoromethyl)azetidin-1-yl)ethoxy)phenyl)-3-methyl-3,4-dihydro-1H-pyrido[3,4-b]indol-2(9H)-yl)((1s,3S)-3-hydroxycyclobutyl) methanone]	–	−75	135
CC(C)C(=O)N1C(c2c(F)cc(OCCN3CC(CF)C3)cc2F)c2[nH]c3ccccc3c2CC1(C)C (centres unmarked) [Example 125, 1-(1-(2,6-difluoro-4-(2-(3-(fluoromethyl)azetidin-1-yl)ethoxy)phenyl)-3,3-dimethyl-3,4-dihydro-1H-pyrido[3,4-b]indol-2(9H)-yl)-2-methylpropan-1-one]	–	−90	74.4
